Like-named read-outs stand apart in the source and are kept apart here.
Legend:
[1] = tested on: patients with myelofibrosis resistant/intolerant to prior ruxolitinib; set-up: method as in doi:10.1182/blood-2022-156669; conditions: fedratinib 400 mg/day, FREEDOM trial, 38 patients; cited from earlier work
[2] = In vitro drug recovery from the nasogastric tube and stability in suspension (data on file); assay type: physicochemical; conditions: in vitro studies
Source text: Reduced exposure was also unlikely to be due to misplacement of the nasogastric tube, as placement was confirmed through X-ray imaging (data on file). The differences in exposure to fedratinib between treatments 2B, 2C, and 2A were likely to be due to interparticipant variability. Furthermore, the 90% CI for the difference in exposure to fedratinib between treatments 2B and 2A fell within the 0.8–1.25 range conventionally defined as having no clinical effect.

[3] = Phase 1 relative bioavailability study part 1: plasma pharmacokinetics of fedratinib (2-period crossover); assay type: in vivo, human; conditions: for AUC(0-t) / AUC(0-inf) / Cmax / Tmax / half-life: human, plasma, po, 400 mg; for half-life: read-out: t½, mean (SD) (converted)
Description: Study part 1 was a 2-period, 2-sequence, open-label, crossover design (Fig. 1A). Treatment 1A (reference) consisted of fedratinib 400 mg (4 × 100-mg capsules) administered orally along with approximately 180 mL of a commercially available nutritional supplement (ie, Ensure Plus). Treatment 1B (test) consisted of fedratinib 400 mg dispersed in a nutritional supplement and administered orally. Participants were randomized to receive treatment in one of the following sequences: 1A–1B or 1B–1A. […] No food or beverages (except water and any nutritional supplement administered with the treatment) were allowed for at least 4 h after dosing.
Approximately 1 h before each fedratinib administration, ondansetron oral tablet (film coated) 8 mg was given orally to reduce the potential for fedratinib-related nausea and vomiting. There was a washout period of at least 12 days between each dose of fedratinib. The duration from screening through the follow-up phone call was approximately 10 weeks. Participants resided at the clinical site from days -1 to 23 (study part 1), or days -1 to 35 (study part 2). If a participant discontinued from the study for any reason, an early termination visit was performed, with only the safety assessments scheduled for the day of discharge taking place. Additionally, each participant who discontinued also received a follow-up phone call 4 (± 2) days after completion of the early termination visit.
For study part 1, and part 2 treatments 2A and 2B, blood samples were collected pre-dose (0 h) and at 0.5, 1, 1.5, 2, 3, 4, 6, 8, 12, 24, 48, 72, 120, 168, 192, and 240 h post-dose. For treatment 2C, blood samples were collected pre-dose (0 h) and at 0.5, 1, 1.5, 2, 3, 4, 6, 8, 12, 12.5, 13, 13.5, 14, 15, 16, 18, 24, 48, 72, 120, 168, 192, and 240 h post-dose of the first dose. The plasma concentration of fedratinib was measured using a validated liquid chromatography-tandem mass spectrometry assay with a lower limit of quantification of 1.00 ng/mL [12, 20].
Plasma PK parameters were calculated using noncompartmental methods by a validated PK analysis program (Phoenix® WinNonlin®, v8.3.4 [Certara USA, Inc., Princeton, NJ, USA]) using actual times. The PK parameters determined for fedratinib Cmax, Tmax, AUC from time 0 to the time of the last quantifiable concentration (AUC0–t), AUC from time 0 to infinity (AUC0–∞), and t½. Additionally for treatment 2C, Cmax and Tmax were estimated after both the first dose (Cmax and Tmax) and the second dose (Cmax2 and Tmax2). AUC0–t and AUC0–∞ were estimated from time 0 (the first dose) through 240 h after the first dose. AUC parameters were calculated using the linear-log trapezoidal method.
The sample size for this study was based on consideration of the precision in the comparison of PK parameters, represented by the 90% confidence interval (CI) of the geometric mean ratios of Cmax and AUC of fedratinib. […] Only participants with valid PK data were included in the summary statistics and statistical analysis.
To compare the PK parameters and estimated relative bioavailability of fedratinib following different administration methods in each study part (treatment 1B to 1A, and treatment 2B and 2C to 2A), a linear mixed-effect model with treatment, period, and sequence as fixed effects and participant nested within sequence as a random effect was fitted to the natural log-transformed PK parameters (Cmax, AUC0–t, and AUC0–∞) for use in estimation of effects and construction of CIs.
In study parts 1 and 2, point estimates and 90% CI for the difference between test and reference treatments was exponentiated, and the ratio of geometric means (test/reference) and associated 90% CI was presented on the original scale. For comparison of treatment 2C to 2A in study part 2, the relative bioavailability assessment was based on only AUC. For Tmax, the difference between test and reference was assessed for significance using Wilcoxon signed-rank test. […]

[4] = tested on: patients with myelofibrosis; conditions: cited from earlier work
[5] = Treatment 1B vs 1A (dispersed oral vs intact capsules), linear mixed-effect model

Cc1cnc(Nc2ccc(OCCN3CCCC3)cc2)nc1Nc1cccc(S(=O)(=O)NC(C)(C)C)c1 [fedratinib]
Patients achieving ≥ 35% spleen volume reduction at the end of cycle 6 [1]: 25.7% | Patients achieving ≥ 50% reduction in total symptom score at end of cycle 6 [1]: 44.4% | Patients with best overall response of ≥ 35% spleen volume reduction at any time [1]: 62.9% | Drug recovery from the nasogastric tube [2]: near-complete drug recovery | Stability in suspension [2]: stable up to 1 h in suspension | AUC0–∞ geometric mean ratio (90% CI) [3, 5]: 1.009 (0.939–1.085) | Cmax geometric mean ratio (90% CI) [3, 5]: 1.059 (0.969–1.157) | AUC(0-t) ([3]; Treatment 1A: single 400 mg oral, 4 × 100-mg intact capsules with nutritional supplement, n = 27, read-out: AUC0–t, geometric mean (Geo. %CV)): 20000 ng·h/mL | AUC(0-inf) ([3]; Treatment 1A: single 400 mg oral, 4 × 100-mg intact capsules with nutritional supplement, n = 27, read-out: AUC0–∞, geometric mean (Geo. %CV)): 22100 ng·h/mL | Cmax ([3]; Treatment 1A: single 400 mg oral, 4 × 100-mg intact capsules with nutritional supplement, n = 27, read-out: Cmax, geometric mean (Geo. %CV)): 1320 ng/mL | Tmax ([3]; Treatment 1A: single 400 mg oral, 4 × 100-mg intact capsules with nutritional supplement, n = 27, read-out: Tmax, median (range)): 2.1 h | half-life ([3]; Treatment 1A: single 400 mg oral, 4 × 100-mg intact capsules with nutritional supplement, n = 27): 103 h | AUC(0-t) ([3]; Treatment 1A: single 400 mg oral, intact capsules with nutritional supplement, n = 27, read-out: AUC0–t, geometric mean (statistical analysis)): 20400 ng·h/mL | AUC(0-inf) ([3]; Treatment 1A: single 400 mg oral, intact capsules with nutritional supplement, n = 27, read-out: AUC0–∞, geometric mean (statistical analysis)): 22500 ng·h/mL | Cmax ([3]; Treatment 1A: single 400 mg oral, intact capsules with nutritional supplement, n = 27, read-out: Cmax, geometric mean (statistical analysis)): 1350 ng/mL | Tmax ([3]; Treatment 1A: single 400 mg oral, intact capsules with nutritional supplement, n = 27, read-out: Tmax, median (statistical analysis)): 2.57 h | AUC(0-t) ([3]; Treatment 1B: single 400 mg oral, capsule contents dispersed in nutritional supplement, n = 26, read-out: AUC0–t, geometric mean (Geo. %CV)): 20500 ng·h/mL | AUC(0-t) ([3]; Treatment 1B: single 400 mg oral, capsule contents dispersed in nutritional supplement, n = 26, read-out: AUC0–t, geometric mean (statistical analysis)): 20500 ng·h/mL | AUC(0-inf) ([3]; Treatment 1B: single 400 mg oral, capsule contents dispersed in nutritional supplement, n = 26, read-out: AUC0–∞, geometric mean (Geo. %CV)): 22700 ng·h/mL | AUC(0-inf) ([3]; Treatment 1B: single 400 mg oral, capsule contents dispersed in nutritional supplement, n = 26, read-out: AUC0–∞, geometric mean (statistical analysis)): 22700 ng·h/mL | Cmax ([3]; Treatment 1B: single 400 mg oral, capsule contents dispersed in nutritional supplement, n = 26, read-out: Cmax, geometric mean (Geo. %CV)): 1430 ng/mL | Cmax ([3]; Treatment 1B: single 400 mg oral, capsule contents dispersed in nutritional supplement, n = 26, read-out: Cmax, geometric mean (statistical analysis)): 1430 ng/mL | Tmax ([3]; Treatment 1B: single 400 mg oral, capsule contents dispersed in nutritional supplement, n = 26, read-out: Tmax, median (statistical analysis)): 2 h | half-life ([3]; Treatment 1B: single 400 mg oral, capsule contents dispersed in nutritional supplement, n = 26): 98.7 h | Patients who experienced nausea ([4]; FREEDOM study): 39.5% | Patients who experienced nausea ([4]; JAKARTA trial): 62%
